Here are results for one molecule from patent US20260130851A1, “PLINABULIN MICELLE COMPOSITION AND PREPARATION METHOD THEREFOR” (priority 2022, published 2026).

The data set is described as follows: Equilibrium solubility of Plinabulin in propylene glycol-D5W diluents (HPLC). Type of data set: physicochemical. Particulars: for Control Group - Absolute Ethanol Test Concentration: 25° C. As to the method:
Corresponding propylene glycol-D5W injections were prepared. The preparation process was as follows: • Diluent 1 (corresponding to a dilution ratio of 1:20). Weigh about 6 g of propylene glycol, place it in a beaker, add 200 ml of D5W injection, and mix well. • Diluent 2 (corresponding to a dilution ratio of 1:30). Weigh about 4 g of propylene glycol, place it in a beaker, add 200 ml of D5W injection, and mix well. • Diluent 3 (corresponding to a dilution ratio of 1:50): Weigh about 2.4 g of propylene glycol, place it in a beaker, add 200 ml of D5W injection, and mix well.
Acceptance criteria: The concentration of Plinabulin in each solution was determined until there was no significant difference between two consecutive determinations, i.e., equilibrium solubility.
Test solutions were taken at different time points, filtered through a 0.45 μm glass fiber membrane, and injected into the high-performance liquid chromatography system. The equilibrium solubility of Plinabulin in solutions with different ratios at various time points was calculated by the external standard method.

≈ marks a conversion by molar mass, not a printed value. Where two headings read alike, the source gives them in different places.

For the molecule `CC(C)(C)c1[nH]cnc1/C=c1\[nH]c(=O)/c(=C/c2ccccc2)[nH]c1=O` [Plinabulin, (3Z,6Z)-3-[(5-tert-butyl-1H-imidazol-4-yl)methylene]-6-(phenylmethylene)-2,5-piperazinedione], the “Control Group - Absolute Ethanol Test Concentration” value worked out at 0.152 µg/mL (Test Sample 1 (49.5 h), Diluent 1 (about 6 g propylene glycol + 200 ml D5W, 1:20), 100 rpm); 0.125 µg/mL (Test Sample 2 (48.5 h), Diluent 2 (about 4 g propylene glycol + 200 ml D5W, 1:30), 100 rpm); 0.113 µg/mL (Test Sample 3 (49 h), Diluent 3 (about 2.4 g propylene glycol + 200 ml D5W, 1:50), 100 rpm). The solubility thermodynamic at 49.5 h worked out at 0.152 µg/mL (≈ 0.452 µM) (propylene glycol-D5W diluent, 25 °C, saline or isotonic, thermodynamic from solid, Test Sample 1 (1:20) dilution level, 49.5 h, read-out: Test Concentration (equilibrium solubility)) and 0.155 µg/mL (propylene glycol-D5W diluent, 25 °C, saline or isotonic, thermodynamic from solid, Test Sample 1 (49.5 h), Diluent 1 (about 6 g propylene glycol + 200 ml D5W, 1:20), 100 rpm, read-out: Control Group - Diluent Test Concentration). The solubility thermodynamic at 72 h (propylene glycol-D5W diluent, 25 °C, saline or isotonic, thermodynamic from solid, Test Sample 1 (1:20) dilution level, 72 h, read-out: Test Concentration (equilibrium solubility)) came out at 0.145 µg/mL (≈ 0.431 µM). Further, the solubility thermodynamic at 94 h (propylene glycol-D5W diluent, 25 °C, saline or isotonic, thermodynamic from solid, Test Sample 1 (1:20) dilution level, 94 h, read-out: Test Concentration (equilibrium solubility)) is 0.143 µg/mL (≈ 0.425 µM). Further, the solubility thermodynamic at 48.5 h reads like this: (propylene glycol-D5W diluent, 25 °C, saline or isotonic, thermodynamic from solid, Test Sample 2 (1:30) dilution level, 48.5 h, read-out: Test Concentration (equilibrium solubility)) 0.125 µg/mL (≈ 0.372 µM); (propylene glycol-D5W diluent, 25 °C, saline or isotonic, thermodynamic from solid, Test Sample 2 (48.5 h), Diluent 2 (about 4 g propylene glycol + 200 ml D5W, 1:30), 100 rpm, read-out: Control Group - Diluent Test Concentration) 0.13 µg/mL. In addition, under “propylene glycol-D5W diluent, 25 °C, saline or isotonic, thermodynamic from solid, Test Sample 2 (1:30) dilution level, 73 h, read-out: Test Concentration (equilibrium solubility)”, the solubility thermodynamic at 73 h was 0.112 µg/mL (≈ 0.333 µM). In addition, the solubility thermodynamic at 94.5 h (propylene glycol-D5W diluent, 25 °C, saline or isotonic, thermodynamic from solid, Test Sample 2 (1:30) dilution level, 94.5 h, read-out: Test Concentration (equilibrium solubility)) amounted to 0.113 µg/mL (≈ 0.336 µM). Besides, the solubility thermodynamic at 49 h is, setting by setting: (propylene glycol-D5W diluent, 25 °C, saline or isotonic, thermodynamic from solid, Test Sample 3 (1:50) dilution level, 49 h, read-out: Test Concentration (equilibrium solubility)) 0.113 µg/mL (≈ 0.336 µM); (propylene glycol-D5W diluent, 25 °C, saline or isotonic, thermodynamic from solid, Test Sample 3 (49 h), Diluent 3 (about 2.4 g propylene glycol + 200 ml D5W, 1:50), 100 rpm, read-out: Control Group - Diluent Test Concentration) 0.117 µg/mL. Besides, the solubility thermodynamic at 73.5 h (propylene glycol-D5W diluent, 25 °C, saline or isotonic, thermodynamic from solid, Test Sample 3 (1:50) dilution level, 73.5 h, read-out: Test Concentration (equilibrium solubility)) stood at 0.095 µg/mL (≈ 0.282 µM). The solubility thermodynamic at 96 h (propylene glycol-D5W diluent, 25 °C, saline or isotonic, thermodynamic from solid, Test Sample 3 (1:50) dilution level, 96 h, read-out: Test Concentration (equilibrium solubility)) came to 0.134 µg/mL (≈ 0.398 µM). The solubility thermodynamic at 120 h (propylene glycol-D5W diluent, 25 °C, saline or isotonic, thermodynamic from solid, Test Sample 3 (1:50) dilution level, 120 h, read-out: Test Concentration (equilibrium solubility)) is 0.135 µg/mL (≈ 0.401 µM).
